From ChEMBL document CHEMBL1201862, “PubChem BioAssay data set” (2004)
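Each compound was tested at five concentrations against cells in 96-well plates for 48 hours. The concentration for 50% growth inhibition is given as GI50.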 Active and inactive are the calls of the source. No stated cut-off is given here; in the data, active = GI50 up to about 1.1 µM and inactive = higher.

Columns and labels:
Assay in all cases: NCI tumour cell line growth inhibition, 48 h
786-0 = system: 786-0
ACHN = system: ACHN
HCT-116 = system: HCT-116
HT-29 = system: HT-29
M14 = system: M14
MDA-MB-231 = system: MDA-MB-231
MDA-MB-435 = system: MDA-MB-435
NCI-H460 = system: NCI-H460
NCI-H522 = system: NCI-H522
NCI/ADR-RES = system: NCI/ADR-RES
OVCAR-3 = system: OVCAR-3
RXF 393 = system: RXF 393
SF-295 = system: SF-295
SNB-75 = system: SNB-75
SR = system: SR
SW-620 = system: SW-620
TK-10 = system: TK-10
UACC-62 = system: UACC-62
SF-539 = system: SF-539
NCI-H226 = system: NCI-H226

SMILES	GI50 (786-0)	GI50 (ACHN)	GI50 (HCT-116)	GI50 (HT-29)	GI50 (M14)	GI50 (MDA-MB-231)	GI50 (MDA-MB-435)	GI50 (NCI-H460)	GI50 (NCI-H522)	GI50 (NCI/ADR-RES)	GI50 (OVCAR-3)	GI50 (RXF 393)	GI50 (SF-295)	GI50 (SNB-75)	GI50 (SR)	GI50 (SW-620)	GI50 (TK-10)	GI50 (UACC-62)	GI50 (SF-539)	GI50 (NCI-H226)
CC(Br)C(=O)c1ccc2cc(Br)c3ccccc3c2c1 (stereo not given)	3.34 µM (inactive)	17.6 µM (inactive)	15.2 µM (inactive)	17.1 µM (inactive)	16.1 µM (inactive)	16.3 µM (inactive)	14.5 µM (inactive)	16 µM (inactive)	3.97 µM (inactive)	18 µM (inactive)	12.1 µM (inactive)	15.4 µM (inactive)	16.4 µM (inactive)	15.2 µM (inactive)	3.15 µM (inactive)	6.01 µM (inactive)	19 µM (inactive)	15.4 µM (inactive)	–	–
COc1cc(C2C3=C(COC3=O)OC(C)(C)Oc3cc4c(cc32)OCO4)cc(OC)c1O (stereo not given)	1.12 µM (active)	0.851 µM (active)	0.548 µM (active)	2.19 µM (inactive)	1.09 µM (active)	0.76 µM (active)	0.217 µM (active)	0.643 µM (active)	0.244 µM (active)	0.39 µM (active)	0.437 µM (active)	0.122 µM (active)	0.232 µM (active)	–	1.01 µM (active)	0.608 µM (active)	–	3.27 µM (inactive)	0.467 µM (active)	–
O=c1c2ncn(CCCl)c2n(-c2ccccc2)c(=S)n1-c1ccccc1	> 100 µM (inactive)	> 100 µM (inactive)	> 100 µM (inactive)	> 100 µM (inactive)	> 100 µM (inactive)	> 100 µM (inactive)	> 100 µM (inactive)	> 100 µM (inactive)	> 100 µM (inactive)	> 100 µM (inactive)	> 100 µM (inactive)	> 100 µM (inactive)	> 100 µM (inactive)	–	> 100 µM (inactive)	> 100 µM (inactive)	> 100 µM (inactive)	> 100 µM (inactive)	> 100 µM (inactive)	> 100 µM (inactive)
CN(C)CC1CCC/C(=C\c2ccc(N(C)C)cc2)C1=O (stereo not given)	3.34 µM (inactive)	19.8 µM (inactive)	3.15 µM (inactive)	2 µM (inactive)	3.55 µM (inactive)	4.78 µM (inactive)	5.4 µM (inactive)	12 µM (inactive)	1.75 µM (inactive)	25.9 µM (inactive)	2.84 µM (inactive)	8.13 µM (inactive)	18.2 µM (inactive)	17 µM (inactive)	–	1.85 µM (inactive)	1.97 µM (inactive)	15.8 µM (inactive)	15.3 µM (inactive)	18.2 µM (inactive)
Fc1sc2c(c1F)C1CCC2C1 (stereo not given)	> 100 µM (inactive)	> 100 µM (inactive)	48.8 µM (inactive)	68.9 µM (inactive)	> 100 µM (inactive)	83.2 µM (inactive)	56.4 µM (inactive)	> 100 µM (inactive)	> 100 µM (inactive)	47.1 µM (inactive)	41.9 µM (inactive)	88.1 µM (inactive)	> 100 µM (inactive)	> 100 µM (inactive)	–	> 100 µM (inactive)	> 100 µM (inactive)	51.8 µM (inactive)	> 100 µM (inactive)	> 100 µM (inactive)
COC(=O)C(Cc1c[nH]c2ccccc12)NP(=O)(O)OCC1OC(n2cc(I)c(=O)[nH]c2=O)CC1O (stereo not given)	> 100 µM (inactive)	> 100 µM (inactive)	> 100 µM (inactive)	> 100 µM (inactive)	> 100 µM (inactive)	> 100 µM (inactive)	> 100 µM (inactive)	> 100 µM (inactive)	> 100 µM (inactive)	> 100 µM (inactive)	> 100 µM (inactive)	–	> 100 µM (inactive)	> 100 µM (inactive)	> 100 µM (inactive)	> 100 µM (inactive)	> 100 µM (inactive)	> 100 µM (inactive)	> 100 µM (inactive)	> 100 µM (inactive)
CCOC(=O)/C(C(=O)Nc1ccc(F)cc1)=C(/N)N1CCCC1	> 100 µM (inactive)	> 100 µM (inactive)	> 100 µM (inactive)	> 100 µM (inactive)	> 100 µM (inactive)	> 100 µM (inactive)	> 100 µM (inactive)	> 100 µM (inactive)	> 100 µM (inactive)	> 100 µM (inactive)	> 100 µM (inactive)	> 100 µM (inactive)	> 100 µM (inactive)	> 100 µM (inactive)	–	> 100 µM (inactive)	> 100 µM (inactive)	> 100 µM (inactive)	> 100 µM (inactive)	> 100 µM (inactive)
